{"source": "paper PMC12737022", "about": "“Evaluations of Sex Differences in Dosimetry in Rats Following Perfluorohexanesulfonamide (PFHxSA) Oral Exposure” (Toxics, 2025)", "key": {"[1]": {"assay": "Plasma dosimetry of PFHxSA and PFHxS by targeted LC/MS/MS", "assay_type": "in vivo, rat", "conditions": "for concentration at 24 h: Sprague Dawley (Crl:CD(SD)), rat, plasma, oral", "description": "(§1) The plasma and liver samples for this investigation were provided by Mutlu et al.. The study design, including detailed descriptions of animal handling, procedures for dosing, clinical observations, termination, and collection of tissues, is reported elsewhere and is consistent with the ARRIVE guidelines. Briefly, male and female Sprague Dawley (SD) rats (Crl:CD(SD)) (n = 48/sex, 96 total) were purchased from Charles River Laboratory (Raleigh, NC, USA) and allowed to acclimate for ≥5 days before initial dosing. Rats were 8–10 weeks old at the time of exposure. PFHxSA dosing solutions in corn oil were prepared on Day 0 and used over the course of the study. Rats of both sexes (n = 5/sex, dose, and time point, plus eight vehicle controls per sex) were dosed by oral gavage (5 mL/kg body weight) once daily for five days. […] The formulation concentrations decreased from 100 mg/kg/day at half-log10 intervals until the lowest dose level, which was a full log10 interval below the next higher dose, giving eight dose levels (0.01 to 100 mg/kg/day or 0.025 µmol/kg/day to 250 µmol/kg/day) in addition to vehicle controls. Doses were administered in randomized order within ± 1 h on each day of dosing. […] Rats were euthanized 24 h after the last dose. Blood was collected via cardiac puncture with tripotassium ethylene diamine tetraacetic acid (K3EDTA) as an anti-coagulant and centrifuged to collect cell-free plasma. Liver was collected and flash-frozen in liquid nitrogen. Liver, plasma, and dosing formulation samples were frozen at the USEPA Center for Computational Toxicology and Exposure (CCTE), Durham, NC, USA. Tissue samples (plasma and liver, n = 96 each) were stored at ≤−70 °C prior to extraction; dosing formulation samples (n = 9) were stored at −20 °C.\n(§2) Detailed information on solvents and standards used for targeted LC/MS/MS of PFHxSA and PFHxS can be found in SI Text S1 and SI Table S1. Plasma and liver preparations were modified from Conley et al.. Briefly, aliquots of plasma (25 µL) and liver (~10 mg) were spiked with PFOSA as an internal standard, as no isotope-labeled PFHxSA was available. Sample batches included up to 96 samples along with an MB, CCV, and LCS for QC. Commercial plasma (mixed-sex SD rat plasma) and liver (mixed-sex SD rat) were obtained from BioIVT (Westbury, NY, USA). Cold acetonitrile (ACN) with 0.1 M formic acid was used to precipitate proteins. Liver and plasma samples were prepared similarly, except that the livers were homogenized after solvent addition. Plasma samples were vortexed to mix before being chilled at −20 °C, after which samples were centrifuged at 5 °C and 10,000× g. Liver samples were chilled at −80 °C, then homogenized using an Omni International (Kennesaw, GA, USA) Bead Ruptor 24. Liver homogenates were centrifuged at 26,000× g and 5 °C. Supernatants from the extraction of both matrices were removed and stored at −20 °C until analysis. Refer to SI Text S4 for additional experimental details and information on calibration and QC parameters for quantitation of PFHxSA.\n(§3) Targeted LC/MS/MS of PFHxSA was performed on a Sciex 4000 QTRAP LC/MS/MS system operated in negative ESI mode with MRM scanning. A Restek (Bellefonte, PA, USA) Raptor Polar X (100 mm × 2 mm, 2.7 µm) column was used for liquid chromatography. Isocratic elution occurred over 10 min with a 30:70 ratio of mobile phase A (10 mM ammonium formate): mobile phase B (60:40 ACN: methanol). Both mobile phases included 0.05% formic acid. The LOQs for PFHxSA were 0.100 µM in plasma and 0.351 µM in liver. Additional details of the instrument method parameters for targeted analysis of PFHxSA are provided in SI Table S5. The MRM transitions for the PFHxSA method are provided in SI Table S6. […]"}, "[2]": {"set-up": "method as in Smeltz et al. [60]", "conditions": "ref Smeltz et al. [60], cited from earlier work"}, "[3]": {"assay": "Liver dosimetry of PFHxSA and PFHxS by targeted LC/MS/MS", "assay_type": "in vivo, rat", "conditions": "PFHxSA 0.1 mg/kg/day oral 5 days; female; individual rats", "description": "as §1, §2, §3"}}, "note": "Where “and” joins values, the source holds several entries; their conditions need not be identical. Equal entries are not always repeated. Where two headings read alike, the source gives them in different places.", "data": [{"smiles": "NS(=O)(=O)C(F)(F)C(F)(F)C(F)(F)C(F)(F)C(F)(F)C(F)(F)F", "note": "[PFHxSA, Perfluorohexanesulfonamide]", "values": [{"measurement": "Female PFHxSA plasma concentrations versus male plasma", "setting": "[1]; at 30 and 100 mg/kg/day", "result": "at least two-fold higher"}, {"measurement": "Female plasma PFHxSA levels higher than males, on average", "setting": "[1]; doses of 10 mg/kg/day and up", "result": 2.9, "unit": "fold"}, {"measurement": "concentration at 24 h", "setting": "[1]; female, 0.01 mg/kg/day, PFHxSA 0.01 mg/kg/day oral 5 days, female rats, mean ± SD, one sample estimated as half the LOQ, read-out: PFHxSA Female Plasma Conc.", "result": "0.117 ± 0.043", "unit": "µM"}, {"measurement": "concentration at 24 h", "setting": "[1]; female, 0.1 mg/kg/day, PFHxSA 0.1 mg/kg/day oral 5 days, female rats, mean ± SD, read-out: PFHxSA Female Plasma Conc.", "result": "1.1 ± 0.11", "unit": "µM"}, {"measurement": "concentration at 24 h", "setting": "[1]; female, 0.1 mg/kg/day, PFHxSA 0.1 mg/kg/day oral 5 days, female, individual rats, read-out: PFHxSA Female Plasma Conc.", "result": "1.03 µM and 410 ng/mL"}, {"measurement": "concentration at 24 h", "setting": "[1]; female, 0.3 mg/kg/day, PFHxSA 0.3 mg/kg/day oral 5 days, female rats, mean ± SD, read-out: PFHxSA Female Plasma Conc.", "result": "4.34 ± 1.6", "unit": "µM"}, {"measurement": "concentration at 24 h", "setting": "[1]; female, 1 mg/kg/day, PFHxSA 1 mg/kg/day oral 5 days, female rats, mean ± SD, read-out: PFHxSA Female Plasma Conc.", "result": "21.3 ± 9.1", "unit": "µM"}, {"measurement": "concentration at 24 h", "setting": "[1]; female, 3 mg/kg/day, PFHxSA 3 mg/kg/day oral 5 days, female rats, mean ± SD, read-out: PFHxSA Female Plasma Conc.", "result": "37.1 ± 13", "unit": "µM"}, {"measurement": "concentration at 24 h", "setting": "[1]; female, 10 mg/kg/day, PFHxSA 10 mg/kg/day oral 5 days, female rats, mean ± SD, read-out: PFHxSA Female Plasma Conc.", "result": "64.9 ± 17", "unit": "µM"}, {"measurement": "concentration at 24 h", "setting": "[1]; female, 10 mg/kg/day, PFHxSA 10 mg/kg/day oral 5 days, female, individual rats, read-out: PFHxSA Female Plasma Conc.", "result": "19600 ng/mL and 49 µM"}, {"measurement": "concentration at 24 h", "setting": "[1]; female, 30 mg/kg/day, PFHxSA 30 mg/kg/day oral 5 days, female rats, mean ± SD, read-out: PFHxSA Female Plasma Conc.", "result": "179 ± 66", "unit": "µM"}, {"measurement": "concentration at 24 h", "setting": "[1]; female, 100 mg/kg/day, PFHxSA 100 mg/kg/day oral 5 days, female, individual rats, read-out: PFHxSA Female Plasma Conc.", "result": "111000 ng/mL and 278 µM"}, {"measurement": "concentration at 24 h", "setting": "[1]; male, 0.01 mg/kg/day, PFHxSA 0.01 mg/kg/day oral 5 days, male rats, single rat above the LOQ, read-out: PFHxSA Male Plasma Conc.", "result": 0.102, "unit": "µM"}, {"measurement": "concentration at 24 h", "setting": "[1]; male, 0.01 mg/kg/day, PFHxSA 0.01 mg/kg/day oral 5 days, male, individual rats, read-out: PFHxSA Male Plasma Conc.", "result": "40.6 ng/mL and 102 nM"}, {"measurement": "concentration at 24 h", "setting": "[1]; male, 0.1 mg/kg/day, PFHxSA 0.1 mg/kg/day oral 5 days, male rats, mean ± SD, read-out: PFHxSA Male Plasma Conc.", "result": "0.796 ± 0.28", "unit": "µM"}, {"measurement": "concentration at 24 h", "setting": "[1]; male, 0.3 mg/kg/day, PFHxSA 0.3 mg/kg/day oral 5 days, male rats, mean ± SD, read-out: PFHxSA Male Plasma Conc.", "result": "4.26 ± 0.48", "unit": "µM"}, {"measurement": "concentration at 24 h", "setting": "[1]; male, 0.3 mg/kg/day, PFHxSA 0.3 mg/kg/day oral 5 days, male, individual rats, read-out: PFHxSA Male Plasma Conc.", "result": "1640 ng/mL and 3.49 µM"}, {"measurement": "concentration at 24 h", "setting": "[1]; male, 1 mg/kg/day, PFHxSA 1 mg/kg/day oral 5 days, male rats, mean ± SD, read-out: PFHxSA Male Plasma Conc.", "result": "11.4 ± 2.2", "unit": "µM"}, {"measurement": "concentration at 24 h", "setting": "[1]; male, 1 mg/kg/day, PFHxSA 1 mg/kg/day oral 5 days, male, individual rats, read-out: PFHxSA Male Plasma Conc.", "result": "4950 ng/mL and 12.4 µM"}, {"measurement": "concentration at 24 h", "setting": "[1]; male, 3 mg/kg/day, PFHxSA 3 mg/kg/day oral 5 days, male rats, mean ± SD, read-out: PFHxSA Male Plasma Conc.", "result": "27.1 ± 8", "unit": "µM"}, {"measurement": "concentration at 24 h", "setting": "[1]; male, 3 mg/kg/day, PFHxSA 3 mg/kg/day oral 5 days, male, individual rats, read-out: PFHxSA Male Plasma Conc.", "result": "9190 ng/mL and 23 µM"}, {"measurement": "concentration at 24 h", "setting": "[1]; male, 10 mg/kg/day, PFHxSA 10 mg/kg/day oral 5 days, male rats, mean ± SD, read-out: PFHxSA Male Plasma Conc.", "result": "56.8 ± 14", "unit": "µM"}, {"measurement": "concentration at 24 h", "setting": "[1]; male, 10 mg/kg/day, PFHxSA 10 mg/kg/day oral 5 days, male, individual rats, read-out: PFHxSA Male Plasma Conc.", "result": "17700 ng/mL and 44.3 µM"}, {"measurement": "concentration at 24 h", "setting": "[1]; male, 30 mg/kg/day, PFHxSA 30 mg/kg/day oral 5 days, male rats, mean ± SD, read-out: PFHxSA Male Plasma Conc.", "result": 81.2, "unit": "µM"}, {"measurement": "concentration at 24 h", "setting": "[1]; male, 30 mg/kg/day, PFHxSA 30 mg/kg/day oral 5 days, male, individual rats, read-out: PFHxSA Male Plasma Conc.", "result": "27700 ng/mL and 69.4 µM"}, {"measurement": "concentration at 24 h", "setting": "[1]; male, 100 mg/kg/day, PFHxSA 100 mg/kg/day oral 5 days, male rats, average, read-out: PFHxSA Male Plasma Conc.", "result": 62.1, "unit": "µM"}, {"measurement": "concentration at 24 h", "setting": "[1]; male, 100 mg/kg/day, PFHxSA 100 mg/kg/day oral 5 days, male, individual rats, read-out: PFHxSA Male Plasma Conc.", "result": "29500 ng/mL and 74 µM"}, {"measurement": "fup (fraction unbound in plasma)", "setting": "[2]; Human plasma", "result": "0.0004 ^1"}, {"measurement": "fub (fraction unbound in blood)", "setting": "[2]; Human", "result": "0.0007 ^1"}, {"measurement": "PFHxSA Female Liver Conc. (wet weight)", "setting": "[3]", "result": "0.491 µM and 0.599 µM and 0.338 µM and 0.434 µM"}]}]}
